Species on record: Rattus norvegicus
Assay: DrugMatrix - Regimen: Daily Repeat
Assay type: toxicity, organism-based, Sprague-Dawley
Design: regimen Daily Repeat, gender Male, age 6-8 weeks
Details: in vivo, iv, vehicle 100 % SALINE; for ABSOLUTE BASOPHIL / ABSOLUTE EOSINOPHIL / ABSOLUTE LYMPHOCYTE / ABSOLUTE MONOCYTE / ABSOLUTE SEGMENTED NEUTROPHIL / BASOPHIL / EOSINOPHIL / ERYTHROCYTE COUNT / HEMATOCRIT / HEMOGLOBIN / LEUKOCYTE COUNT / LYMPHOCYTE / MEAN CORPUSCULAR HEMOGLOBIN / MEAN CORPUSCULAR HEMOGLOBIN CONCENTRATION / MEAN CORPUSCULAR VOLUME / MONOCYTE / NEUTROPHIL / NUCLEATED RED BLOOD CELLS / PLATELET COUNT: tissue Blood; for ALANINE AMINOTRANSFERASE / ALBUMIN / ALKALINE PHOSPHATASE / ASPARTATE AMINOTRANSFERASE / BLOOD UREA NITROGEN / CARBON DIOXIDE / CHOLESTEROL / CREATINE PHOSPHOKINASE / CREATININE / GLUCOSE / LACTATE DEHYDROGENASE / LIPASE / PHOSPHORUS / POTASSIUM / SODIUM / TOTAL BILIRUBIN / TOTAL PROTEIN / URIC ACID: tissue Plasma
[1] = 18 mg/kg, 120 h, dose level High, time 5 day
[2] = […], 72 h, dose 7.5 mg/Kg, dose level Low, time 3 day
[3] = […], 120 h, dose 7.5 mg/Kg, dose level Low, time 5 day

N=C(N)c1ccc(OCCCCCOc2ccc(C(=N)N)cc2)cc1 [PENTAMIDINE]
ABSOLUTE BASOPHIL [1]: 0 CELLS/uL
ABSOLUTE EOSINOPHIL [1]: 0 CELLS/uL
ABSOLUTE LYMPHOCYTE [1]: 15017 CELLS/uL
ABSOLUTE MONOCYTE [1]: 444.33 CELLS/uL
ABSOLUTE SEGMENTED NEUTROPHIL [1]: 972 CELLS/uL
BASOPHIL [1]: 0%
EOSINOPHIL [1]: 0%
ERYTHROCYTE COUNT [1]: 6.15 x10E6/uL
HEMATOCRIT [1]: 37.9%
HEMOGLOBIN [1]: 14.2 G/DL
LEUKOCYTE COUNT [1]: 16.43 x10E3/uL
LYMPHOCYTE [1]: 91.33%
MEAN CORPUSCULAR HEMOGLOBIN [1]: 23.07 pg
MEAN CORPUSCULAR HEMOGLOBIN CONCENTRATION [1]: 37.5 G/DL
MEAN CORPUSCULAR VOLUME [1]: 61.53 fL
MONOCYTE [1]: 2.67%
NEUTROPHIL [1]: 6%
NUCLEATED RED BLOOD CELLS [1]: 0 /100WBC
PLATELET COUNT [1]: 1455 x10E3/uL
ALANINE AMINOTRANSFERASE [1]: 44.33 u/L
ALBUMIN [1]: 4.3 G/DL
ALKALINE PHOSPHATASE [1]: 288.33 u/L
ASPARTATE AMINOTRANSFERASE [1]: 71 u/L
BLOOD UREA NITROGEN [1]: 13.67 mg/dL
CARBON DIOXIDE [1]: 26.67 mmol/L
CHOLESTEROL [1]: 57 mg/dL
CREATINE PHOSPHOKINASE [1]: 246.67 u/L
CREATININE [1]: 0.22 mg/dL
GLUCOSE [1]: 166.33 mg/dL
LACTATE DEHYDROGENASE [1]: 175 u/L
LIPASE [1]: 8.67 u/L
PHOSPHORUS [1]: 11.6 mg/dL
POTASSIUM [1]: 5.78 MEQ/L
SODIUM [1]: 146.7 MEQ/L
TOTAL BILIRUBIN [1]: 0.2 mg/dL
TOTAL PROTEIN [1]: 6.13 G/DL
URIC ACID [1]: 1.93 mg/dL
ABSOLUTE BASOPHIL [2]: 0 CELLS/uL
ABSOLUTE EOSINOPHIL [2]: 0 CELLS/uL
ABSOLUTE LYMPHOCYTE [2]: 12540 CELLS/uL
ABSOLUTE MONOCYTE [2]: 234 CELLS/uL
ABSOLUTE SEGMENTED NEUTROPHIL [2]: 1759.33 CELLS/uL
BASOPHIL [2]: 0%
EOSINOPHIL [2]: 0%
ERYTHROCYTE COUNT [2]: 5.88 x10E6/uL
HEMATOCRIT [2]: 37.37%
HEMOGLOBIN [2]: 14.03 G/DL
LEUKOCYTE COUNT [2]: 14.53 x10E3/uL
LYMPHOCYTE [2]: 86.67%
MEAN CORPUSCULAR HEMOGLOBIN [2]: 23.9 pg
MEAN CORPUSCULAR HEMOGLOBIN CONCENTRATION [2]: 37.53 G/DL
MEAN CORPUSCULAR VOLUME [2]: 63.63 fL
MONOCYTE [2]: 1.67%
NEUTROPHIL [2]: 11.67%
NUCLEATED RED BLOOD CELLS [2]: 0 /100WBC
PLATELET COUNT [2]: 1241.67 x10E3/uL
ALANINE AMINOTRANSFERASE [2]: 54.33 u/L
ALBUMIN [2]: 4.63 G/DL
ALKALINE PHOSPHATASE [2]: 393 u/L
ASPARTATE AMINOTRANSFERASE [2]: 80.67 u/L
BLOOD UREA NITROGEN [2]: 15.33 mg/dL
CARBON DIOXIDE [2]: 24.67 mmol/L
CHOLESTEROL [2]: 69.67 mg/dL
CREATINE PHOSPHOKINASE [2]: 265 u/L
CREATININE [2]: 0.17 mg/dL
GLUCOSE [2]: 136.67 mg/dL
LACTATE DEHYDROGENASE [2]: 184 u/L
LIPASE [2]: 9 u/L
PHOSPHORUS [2]: 10.97 mg/dL
POTASSIUM [2]: 6.64 MEQ/L
SODIUM [2]: 143.8 MEQ/L
TOTAL BILIRUBIN [2]: 0.23 mg/dL
TOTAL PROTEIN [2]: 5.83 G/DL
URIC ACID [2]: 1.97 mg/dL
ABSOLUTE BASOPHIL [3]: 0 CELLS/uL
ABSOLUTE EOSINOPHIL [3]: 183 CELLS/uL
ABSOLUTE LYMPHOCYTE [3]: 14369.67 CELLS/uL
ABSOLUTE MONOCYTE [3]: 485 CELLS/uL
ABSOLUTE SEGMENTED NEUTROPHIL [3]: 1795.67 CELLS/uL
BASOPHIL [3]: 0%
EOSINOPHIL [3]: 1%
ERYTHROCYTE COUNT [3]: 5.98 x10E6/uL
HEMATOCRIT [3]: 38.47%
HEMOGLOBIN [3]: 14.17 G/DL
LEUKOCYTE COUNT [3]: 16.83 x10E3/uL
LYMPHOCYTE [3]: 85%
MEAN CORPUSCULAR HEMOGLOBIN [3]: 23.7 pg
MEAN CORPUSCULAR HEMOGLOBIN CONCENTRATION [3]: 36.83 G/DL
MEAN CORPUSCULAR VOLUME [3]: 64.37 fL
MONOCYTE [3]: 3%
NEUTROPHIL [3]: 11%
NUCLEATED RED BLOOD CELLS [3]: 0 /100WBC
PLATELET COUNT [3]: 1425 x10E3/uL
ALANINE AMINOTRANSFERASE [3]: 42.67 u/L
ALBUMIN [3]: 4.57 G/DL
ALKALINE PHOSPHATASE [3]: 364.67 u/L
ASPARTATE AMINOTRANSFERASE [3]: 84.33 u/L
BLOOD UREA NITROGEN [3]: 18.67 mg/dL
CARBON DIOXIDE [3]: 27.67 mmol/L
CHOLESTEROL [3]: 76.67 mg/dL
CREATINE PHOSPHOKINASE [3]: 325 u/L
CREATININE [3]: 0.23 mg/dL
GLUCOSE [3]: 145 mg/dL
LACTATE DEHYDROGENASE [3]: 461.33 u/L
LIPASE [3]: 9 u/L
PHOSPHORUS [3]: 11.17 mg/dL
POTASSIUM [3]: 6.1 MEQ/L
SODIUM [3]: 143.03 MEQ/L
TOTAL BILIRUBIN [3]: 0.23 mg/dL
TOTAL PROTEIN [3]: 6.3 G/DL
URIC ACID [3]: 1.33 mg/dL

Source: ChEMBL document CHEMBL3885881, “DrugMatrix”
